≈ marks a conversion by molar mass, not a printed value. Blank lines part the entries; values can stand above or below the molecule they belong to.
Legend:
Test in all cases: ≥ marks a high value that may be exact or a test limit, other limits are often not marked, values filed in µg/mL are converted to µM
[1] = test system: Bibersteinia trehalosi
[2] = test system: Corynebacterium pseudotuberculosis ATCC 19410
[3] = test system: Klebsiella pneumoniae
[4] = test system: Mannheimia haemolytica Serovar 1
[5] = test system: Mannheimia haemolytica Serovar 6
[6] = test system: Pasteurella multocida
[7] = test system: Pseudomonas aeruginosa PAO1
[8] = test system: Salmonella enterica subsp. arizonae
[9] = test system: Staphylococcus aureus
[10] = test system: Acinetobacter baumannii
[11] = test system: Enterobacter cloacae
[12] = test system: Escherichia coli ATCC 25922
[13] = test system: Escherichia coli BL21
[14] = test system: Escherichia coli KpC+001812446
[15] = test system: Klebsiella pneumoniae ATCC 13883
[16] = test system: Klebsiella pneumoniae KpC+001825971
[17] = test system: Pseudomonas aeruginosa PA14
[18] = test system: Staphylococcus aureus ATCC 12600
[19] = test system: Staphylococcus aureus ATCC 25923
[20] = test system: Staphylococcus aureus MR
[21] = test system: Staphylococcus epidermidis ATCC 12228
[22] = test system: Streptococcus pyogenes DMST 17020
[23] = test system: Escherichia coli BW25113
[24] = test system: Escherichia coli J2210
[25] = test system: Escherichia coli JJ2489
[26] = test system: Escherichia coli JW0013
[27] = test system: Escherichia coli JW0368 ΔsbmA
[28] = test system: Escherichia coli JW2778 ΔygdD
[29] = test system: Escherichia coli MC1041
[30] = test system: Salmonella enterica subsp. enterica serovar Enteritidis MH91989
[31] = test system: Salmonella typhimurium SL1344
[32] = test system: Candida albicans CGMCC 2.2086
[33] = test system: Candida parapsilosis CGMCC 2.3989
[34] = test system: Candida tropicalis CGMCC 2.1975
[35] = test system: Lacticaseibacillus rhamnosus 7469
[36] = test system: Lactiplantibacillus plantarum 8014
[37] = test system: Staphylococcus aureus ATCC 29213
[38] = test system: Escherichia coli K-12
[39] = test system: Staphylococcus aureus JE2
[40] = test system: Legionella pneumophila Lens

MIC [1]: 2.85 µM (≈ 10 µg/mL)
MIC [2]: 5.7 µM (≈ 20 µg/mL)
MIC [3]: 0.37 µM (≈ 1.3 µg/mL)
MIC [6]: 2.37 µM (≈ 8.3 µg/mL)
MIC [7]: 1.2 µM (≈ 4.2 µg/mL)
MIC [8]: 1.91 µM (≈ 6.7 µg/mL)
MIC [9]: 1.42 µM (≈ 5 µg/mL)
Structure (SMILES): CC[C@H](C)[C@H](NC(=O)[C@H](CCCN=C(N)N)NC(=O)[C@@H](NC(=O)[C@@H](NC(=O)[C@H](CCCN=C(N)N)NC(=O)[C@H](CC(C)C)NC(=O)[C@@H](NC(=O)[C@@H](NC(=O)[C@@H]1CCCN1C(=O)CNC(=O)[C@H](Cc1ccc(O)cc1)NC(=O)[C@H](CCCCN)NC(=O)[C@H](CCCCN)NC(=O)[C@@H](NC(=O)[C@@H](NC(=O)[C@H](Cc1cnc[nH]1)NC(=O)[C@@H](NC(=O)[C@@H](NC(=O)[C@H](CCCCN)NC(=O)[C@H](CCCN=C(N)N)NC(=O)[C@@H](NC(=O)[C@@H](NC(=O)[C@H](CCCN=C(N)N)NC(=O)[C@H](CCCN=C(N)N)NC(=O)[C@H](CC(C)C)NC(=O)[C@H](CC(N)=O)NC(=O)[C@@H](N)CCCCN)[C@@H](C)CC)[C@@H](C)CC)[C@@H](C)CC)[C@@H](C)CC)[C@@H](C)CC)[C@@H](C)CC)[C@@H](C)O)[C@@H](C)CC)[C@@H](C)CC)[C@@H](C)CC)C(=O)N[C@H](C(=O)NCC(N)=O)[C@@H](C)CC [KNLRRIIRKIIHIIKKYGPTILRIIRIIG]
MIC [4]: 1.08 µM (≈ 3.8 µg/mL)
MIC [5]: 0.598 µM (≈ 2.1 µg/mL)

MIC [10]: ≥ 32 µM
MIC [11]: ≥ 32 µM
MIC [12]: 4 µM (≈ 6.54 µg/mL)
MIC [13]: 2 µM (≈ 3.27 µg/mL)
MIC [14]: 8 µM (≈ 13.1 µg/mL)
MIC [15]: 8 µM (≈ 13.1 µg/mL)
MIC [16]: ≥ 32 µM
MIC [17]: 4 µM (≈ 6.54 µg/mL)
MIC [7]: 4 µM (≈ 6.54 µg/mL)
MIC [18]: 4 µM (≈ 6.54 µg/mL)
MIC [19]: > 32 µM
MIC [20]: ≥ 32 µM
Structure (SMILES): CC[C@H](C)[C@H](NC(=O)[C@H](CCCCN)NC(=O)[C@H](CCCCN)NC(=O)[C@@H](NC(=O)[C@H](CCCCN)NC(=O)[C@H](C)NC(=O)[C@H](C)NC(=O)[C@H](CC(C)C)NC(=O)[C@H](CCCN=C(N)N)NC(=O)[C@H](CCCCN)NC(=O)[C@H](CC(C)C)NC(=O)[C@@H](NC(=O)[C@@H](N)CCCCN)[C@@H](C)CC)[C@@H](C)CC)C(=O)N[C@@H](CC(C)C)C(N)=O [KILKRLAAKIKKIL]

MIC [21]: 250 µM (≈ 281 µg/mL)
MIC [22]: ≥ 250 µM
Structure (SMILES): CSCC[C@H](NC(=O)[C@H](CS)NC(=O)[C@H](CC(C)C)NC(=O)[C@@H](NC(=O)[C@@H](N)Cc1cnc[nH]1)[C@@H](C)O)C(=O)NCC(=O)N[C@@H](CCCCN)C(=O)N[C@@H](C)C(=O)N[C@H](C(=O)N[C@@H](Cc1ccc(O)cc1)C(=O)O)[C@@H](C)O [HTLCMGKATY]

MIC [23]: 0.078 µM (≈ 0.162 µg/mL)
MIC [24]: 0.157 µM (≈ 0.326 µg/mL)
MIC [25]: 0.12 µM (≈ 0.25 µg/mL)
MIC [26]: 0.06 µM (≈ 0.125 µg/mL)
MIC [27]: 0.06 µM (≈ 0.125 µg/mL)
MIC [28]: 0.12 µM (≈ 0.25 µg/mL)
MIC [29]: 0.06 µM (≈ 0.125 µg/mL)
MIC [30]: 0.12 µM (≈ 0.25 µg/mL)
MIC [31]: 0.12 µM (≈ 0.25 µg/mL)
Structure (SMILES): CC[C@H](C)[C@H](NC(=O)[C@H](CCCN=C(N)N)NC(=O)[C@@H](N)CCCN=C(N)N)C(=O)N[C@@H](CCCN=C(N)N)C(=O)N[C@@H](CCCCN)C(=O)N[C@@H](CCCN=C(N)N)C(=O)N1CCC[C@H]1C(=O)N1CCC[C@H]1C(=O)N[C@@H](CCCN=C(N)N)C(=O)N[C@@H](CC(C)C)C(=O)N1CCC[C@H]1C(=O)N[C@@H](CCCN=C(N)N)C(=O)N1CCC[C@H]1C(=O)N[C@@H](CCCN=C(N)N)C(=O)N1CCC[C@H]1C(=O)N[C@@H](CCCCN)C(=O)O [RRIRKRPPRLPRPRPK]

MIC [22]: ≥ 50 µM
Structure (SMILES): CSCC[C@H](NC(=O)[C@H](CS)NC(=O)[C@H](CC(C)C)NC(=O)[C@@H](NC(=O)[C@@H](N)Cc1cnc[nH]1)[C@@H](C)O)C(=O)N[C@@H](CC(=O)O)C(=O)NCC(=O)NCC(=O)N[C@@H](C)C(=O)N[C@H](C(=O)N[C@@H](Cc1ccc(O)cc1)C(=O)O)[C@@H](C)O [HTLCMDGGATY]

MIC [32]: 1 µM (≈ 2.75 µg/mL)
MIC [33]: 1 µM (≈ 2.75 µg/mL)
MIC [34]: 0.5 µM (≈ 1.38 µg/mL)
MIC [35]: ≥ 64 µM
MIC [19]: > 64 µM
MIC [37]: > 64 µM
MIC [21]: > 64 µM
Structure (SMILES): CC[C@H](C)[C@H](N)C(=O)N[C@@H](Cc1cnc[nH]1)C(=O)N[C@@H](Cc1cnc[nH]1)C(=O)N[C@H](C(=O)N[C@@H](Cc1cnc[nH]1)C(=O)N[C@@H](Cc1cnc[nH]1)C(=O)N[C@@H](Cc1cnc[nH]1)C(=O)N[C@H](C(=O)N[C@@H](Cc1cnc[nH]1)C(=O)N[C@@H](Cc1cnc[nH]1)C(=O)N[C@H](C(=O)N[C@@H](Cc1cnc[nH]1)C(=O)N[C@@H](Cc1cnc[nH]1)C(=O)N[C@@H](Cc1cnc[nH]1)C(=O)N[C@H](C(=O)N[C@@H](Cc1cnc[nH]1)C(=O)N[C@@H](Cc1cnc[nH]1)C(=O)N[C@H](C(=O)N[C@@H](Cc1cnc[nH]1)C(=O)N[C@@H](Cc1cnc[nH]1)C(=O)N[C@@H](Cc1cnc[nH]1)C(N)=O)[C@@H](C)CC)[C@@H](C)CC)[C@@H](C)CC)[C@@H](C)CC)[C@@H](C)CC [IHHIHHHIHHIHHHIHHIHHH]
MIC [36]: ≥ 64 µM

MIC [38]: ≥ 158 µM
MIC [39]: ≥ 158 µM
Structure (SMILES): CC[C@H](C)[C@H](NC(=O)[C@@H](NC(=O)[C@H](CO)NC(=O)[C@H](C)NC(=O)[C@@H](NC(=O)[C@H](CCCCN)NC(=O)[C@H](CCCCN)NC(=O)[C@@H](NC(=O)[C@@H](NC(=O)[C@H](CC(=O)O)NC(=O)[C@H](Cc1ccccc1)NC(=O)[C@H](CC(C)C)NC(=O)CNC(C)=O)C(C)C)[C@@H](C)CC)C(C)C)C(C)C)C(=O)NCC(=O)NCC(=O)N[C@@H](CC(C)C)C(=O)O [GLFDVIKKVASVIGGL]

MIC [40]: 2.08 µM (≈ 5.23 µg/mL)
Structure (SMILES): CC[C@H](C)[C@H](NC(=O)[C@H](CC(C)C)NC(=O)[C@H](CC(=O)O)NC(=O)[C@@H](NC(=O)[C@@H](NC(=O)[C@H](Cc1ccccc1)NC(=O)[C@H](CCC(N)=O)NC(=O)[C@@H](N)CCSC)[C@@H](C)CC)[C@@H](C)O)C(=O)N[C@@H](CCCCN)C(=O)N[C@@H](CCCCN)C(=O)N[C@@H](C)C(=O)N[C@H](C(=O)N[C@@H](CC(=O)O)C(=O)N[C@@H](Cc1ccccc1)C(=O)N[C@@H](Cc1ccccc1)C(=O)N[C@@H](CCCCN)C(=O)NCC(=O)N[C@@H](CC(C)C)C(=O)N[C@H](C(=O)NCC(=O)N[C@@H](CC(N)=O)C(=O)N[C@@H](CCCCN)C(=O)O)C(C)C)C(C)C [MQFITDLIKKAVDFFKGLVGNK]
